Data: article PMC5602553 (Biochemistry, 2017)

Biological target: T1, KpCld (Klebsiella pneumoniae, UniProt A6TJ49)
T1 sequence (A6TJ49 1-187): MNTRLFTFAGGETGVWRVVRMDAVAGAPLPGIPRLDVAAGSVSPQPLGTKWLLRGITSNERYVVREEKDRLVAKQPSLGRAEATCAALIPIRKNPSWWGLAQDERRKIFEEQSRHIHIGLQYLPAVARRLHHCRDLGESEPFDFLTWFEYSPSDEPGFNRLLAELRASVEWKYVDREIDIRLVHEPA
Conditions: 100 mM phosphate pH 6.0; ferric enzyme; single binding site

Br [Br^−]
Kd: 12.2 mM
